Data as given in the NIST ThermoML archive (doi:10.1021/je4009415).

Test: xn = mol fraction of the nth substance listed
Details: Liquid, Vibrating tube method

CCOC(=O)CC [ethyl propanoate] + CCCCCCCCC
Details	mass density [kg/m3]
288.15 K, x1 = 0.0545	727.07
288.15 K, x1 = 0.1159	733.36
288.15 K, x1 = 0.1434	736.52
288.15 K, x1 = 0.2218	745.49
288.15 K, x1 = 0.2412	747.88
288.15 K, x1 = 0.3158	757.46
288.15 K, x1 = 0.3579	763.17
288.15 K, x1 = 0.4121	770.89
288.15 K, x1 = 0.462	778.51
288.15 K, x1 = 0.5039	785.25
288.15 K, x1 = 0.5537	793.58
288.15 K, x1 = 0.6035	802.47
288.15 K, x1 = 0.6328	807.91
288.15 K, x1 = 0.6935	819.81
288.15 K, x1 = 0.7463	830.79
288.15 K, x1 = 0.7907	840.69
288.15 K, x1 = 0.895	866.09
288.15 K, x1 = 0.9488	880.62
288.15 K, x1 = 1	895.58
298.15 K, x1 = 0.0538	718.94
298.15 K, x1 = 0.0883	722.45
298.15 K, x1 = 0.142	728.05
298.15 K, x1 = 0.2152	736.31
298.15 K, x1 = 0.3007	746.83
298.15 K, x1 = 0.3555	754.11
298.15 K, x1 = 0.4078	761.4
298.15 K, x1 = 0.4592	769.02
298.15 K, x1 = 0.4988	775.19
298.15 K, x1 = 0.5511	783.72
298.15 K, x1 = 0.5917	790.84
298.15 K, x1 = 0.6562	802.56
298.15 K, x1 = 0.6962	810.32
298.15 K, x1 = 0.741	819.48
298.15 K, x1 = 0.7883	829.57
298.15 K, x1 = 0.8559	845.47
298.15 K, x1 = 0.9034	857.27
298.15 K, x1 = 0.9521	870.29
298.15 K, x1 = 1	884.15
308.15 K, x1 = 0.0558	711.17
308.15 K, x1 = 0.089	714.43
308.15 K, x1 = 0.1555	721.34
308.15 K, x1 = 0.2171	728.16
308.15 K, x1 = 0.2586	733.03
308.15 K, x1 = 0.3081	739.12
308.15 K, x1 = 0.3829	748.94
308.15 K, x1 = 0.4013	751.5
308.15 K, x1 = 0.4533	759.02
308.15 K, x1 = 0.5068	767.11
308.15 K, x1 = 0.5509	774.2
308.15 K, x1 = 0.6035	783.03
308.15 K, x1 = 0.6525	791.81
308.15 K, x1 = 0.6998	800.82
308.15 K, x1 = 0.7473	810.39
308.15 K, x1 = 0.794	820.41
308.15 K, x1 = 0.8533	833.93
308.15 K, x1 = 0.9006	845.51
308.15 K, x1 = 0.9506	858.66
308.15 K, x1 = 1	872.62
318.15 K, x1 = 0.0516	702.64
318.15 K, x1 = 0.0909	706.6
318.15 K, x1 = 0.1617	713.7
318.15 K, x1 = 0.219	719.88
318.15 K, x1 = 0.2413	722.49
318.15 K, x1 = 0.2923	728.44
318.15 K, x1 = 0.3518	735.96
318.15 K, x1 = 0.4062	743.15
318.15 K, x1 = 0.4541	749.92
318.15 K, x1 = 0.5056	757.57
318.15 K, x1 = 0.556	765.57
318.15 K, x1 = 0.6001	772.83
318.15 K, x1 = 0.6514	781.78
318.15 K, x1 = 0.6939	789.72
318.15 K, x1 = 0.7552	801.69
318.15 K, x1 = 0.7988	810.87
318.15 K, x1 = 0.8559	823.94
318.15 K, x1 = 0.9062	835.91
318.15 K, x1 = 0.9524	847.95
318.15 K, x1 = 1	861.08
328.15 K, x1 = 0.0514	694.83
328.15 K, x1 = 0.0965	699.04
328.15 K, x1 = 0.1572	705.05
328.15 K, x1 = 0.2061	710.14
328.15 K, x1 = 0.2627	716.42
328.15 K, x1 = 0.3163	722.76
328.15 K, x1 = 0.3619	728.36
328.15 K, x1 = 0.4059	734.14
328.15 K, x1 = 0.4602	741.6
328.15 K, x1 = 0.5053	748.09
328.15 K, x1 = 0.5543	755.65
328.15 K, x1 = 0.6024	763.42
328.15 K, x1 = 0.6525	772.01
328.15 K, x1 = 0.6996	780.61
328.15 K, x1 = 0.7535	791.02
328.15 K, x1 = 0.8019	801
328.15 K, x1 = 0.8606	813.96
328.15 K, x1 = 0.8933	821.83
328.15 K, x1 = 0.9504	836
328.15 K, x1 = 1	849.41
